{"source": "ChEMBL document CHEMBL1154782", "about": "“Discovery of Trp-His and His-Arg analogues as new structural classes of short antimicrobial peptides” (J Med Chem, 2009)", "key": {"[1]": {"tested_on": "Candida albicans", "assay": "Antifungal activity against Candida albicans ATCC 10231", "format": "functional, organism-based"}, "[2]": {"tested_on": "Klebsiella pneumoniae", "assay": "Antibacterial activity against Klebsiella pneumoniae ATCC 700603", "format": "functional, organism-based"}, "[3]": {"tested_on": "Pseudomonas aeruginosa", "assay": "Antibacterial activity against Pseudomonas aeruginosa ATCC 9027", "format": "functional, organism-based"}, "[4]": {"tested_on": "L929", "assay": "Cytotoxicity against mouse L929 cells up to 200 ug/mL after 5 days by MTT assay", "format": "cell-based", "settings": "l929, 120 h"}, "[5]": {"tested_on": "Candida albicans", "assay": "Antifungal activity against Candida albicans ATCC 10231 after 15 to 18 hrs under aerobic condition by modified broth microdilution method", "format": "functional"}, "[6]": {"tested_on": "Escherichia coli", "assay": "Antibacterial activity against Escherichia coli ATCC 35218 after 15 to 18 hrs under aerobic condition by modified broth microdilution method", "format": "functional"}, "[7]": {"tested_on": "Staphylococcus epidermidis", "assay": "Antibacterial activity against methicillin-resistant Staphylococcus epidermidis DSM 50160384", "format": "functional, organism-based"}, "[8]": {"tested_on": "Staphylococcus epidermidis", "assay": "Antibacterial activity against methicillin-resistant Staphylococcus epidermidis DSM 50160384 after 15 to 18 hrs under aerobic condition by modified broth microdilution method", "format": "functional"}, "[9]": {"tested_on": "Staphylococcus aureus", "assay": "Antibacterial activity against methicillin-resistant Staphylococcus aureus DSM 50128509", "format": "functional, organism-based"}, "[10]": {"tested_on": "Staphylococcus aureus", "assay": "Antibacterial activity against methicillin-resistant Staphylococcus aureus DSM 50128509 after 15 to 18 hrs under aerobic condition by modified broth microdilution method", "format": "functional"}, "[11]": {"tested_on": "Klebsiella pneumoniae", "assay": "Antibacterial activity against Klebsiella pneumoniae ATCC 700603 after 15 to 18 hrs under aerobic condition by modified broth microdilution method", "format": "functional"}, "[12]": {"tested_on": "Pseudomonas aeruginosa", "assay": "Antibacterial activity against Pseudomonas aeruginosa ATCC 9027 after 15 to 18 hrs under aerobic condition by modified broth microdilution method", "format": "functional"}, "[13]": {"tested_on": "Escherichia coli", "assay": "Antibacterial activity against Escherichia coli ATCC 35218", "format": "functional, organism-based"}}, "data": [{"compound": "COC(=O)[C@H](CCCNC(=N)N)NC(=O)[C@H](Cc1c[nH]c(C23CC4CC(CC(C4)C2)C3)n1)NC(=O)OC(C)(C)C", "values": [{"measurement": "IC50", "setting": "[1]", "value": 16.1, "unit": "µg/mL"}, {"measurement": "IC50", "setting": "[2]", "value": 31.5, "unit": "µg/mL"}, {"measurement": "IC50", "setting": "[3]", "value": 25.7, "unit": "µg/mL"}, {"measurement": "Activity", "setting": "[4]", "value": "Non-toxic"}, {"measurement": "MIC", "setting": "[5]", "value": 200, "unit": "µg/mL"}, {"measurement": "MIC", "setting": "[6]", "value": 100, "unit": "µg/mL"}, {"measurement": "IC50", "setting": "[7]", "value": 6.87, "unit": "µg/mL"}, {"measurement": "MIC", "setting": "[8]", "value": 50, "unit": "µg/mL"}, {"measurement": "IC50", "setting": "[9]", "value": 9.77, "unit": "µg/mL"}, {"measurement": "MIC", "setting": "[10]", "value": 50, "unit": "µg/mL"}, {"measurement": "MIC", "setting": "[11]", "value": 200, "unit": "µg/mL"}, {"measurement": "MIC", "setting": "[12]", "value": 100, "unit": "µg/mL"}, {"measurement": "IC50", "setting": "[13]", "value": 8.33, "unit": "µg/mL"}]}]}
